From ChEMBL document CHEMBL4732026, “Benzimidazole-1,2,3-triazole hybrid molecules: synthesis and study of their interaction with G-quadruplex DNA” (RSC Med Chem, 2021)
Active and inactive are the calls of the source. The rule behind the calls is not given here.

Experiments:
dsDNA [1] = experiment: Binding affinity to double strand DNA (unknown origin) assessed as hypsochromic shift at 8.5 uM incubated for 5 mins by UV- vis spectrophotometric analysis; format: nucleic-acid assay
PC-3 [2] = experiment: Induction of cell cycle arrest in human PC3 cells assessed as accumulation at G1 phase at 50 uM after 48 hrs by propidium iodide staining based flow cytometry (reference value: 5%); format: functional
dsDNA [3] = experiment: Binding affinity to double strand DNA (unknown origin) assessed as dissociation constant incubated for 5 mins by UV- vis spectrophotometric analysis; format: nucleic-acid assay
PC-3 [4] = experiment: Induction of cell cycle arrest in human PC3 cells assessed as accumulation at S phase at 55 uM after 48 hrs by propidium iodide staining based flow cytometry (reference value: 1.8%); format: functional
CHO-K1 [5] = experiment: Induction of apoptosis in CHO-K1 cells assessed as necrotic cells at 65 uM after 48 hrs by Annexin V based flow cytometric analysis (reference value: 0.70%); format: cell-based, Cricetulus griseus; conditions: chinese hamster, cho-k1, 48 h
PC-3 [6] = experiment: Induction of apoptosis in human PC-3 cells assessed as early apoptic cells at 55 uM after 48 hrs by Annexin V based flow cytometric analysis (reference value: 0.40%); format: functional
CHO-K1 [7] = experiment: Cytotoxicity against […] cells assessed as reduction in cell viability measured after 72 hrs by MTT assay; format: cell-based; conditions: Cricetulus griseus, CHO-K1, 72 h
Quadruplex DNA [8] = experiment: Binding affinity to c-Myc G-quadruplex DNA (unknown origin) assessed as hypsochromic shift at 8.5 uM incubated for 5 mins by UV- vis spectrophotometric analysis; format: nucleic-acid assay
Quadruplex DNA [9] = experiment: Binding affinity to Tel Q G-quadruplex DNA (unknown origin) assessed as increase in intensity of positive and negative peaks at 10 to 40 uM by circular dichroism spectra; format: nucleic-acid assay; conditions: dose 10-40 µM
CHO-K1 [10] = experiment: Induction of apoptosis in CHO-K1 cells assessed as apoptic cells at 65 uM after 48 hrs by Annexin V based flow cytometric analysis (reference value: 6.29%); format: cell-based, Cricetulus griseus; conditions: chinese hamster, cho-k1, 48 h
Quadruplex DNA [11] = experiment: Stabilization of Tel Q G-quadruplex DNA (unknown origin) assessed as change in melting temperature at 8.5 uM incubated for 5 mins by UV-visible thermal denaturation study; format: nucleic-acid assay
dsDNA [12] = experiment: Stabilization of double strand DNA (unknown origin) assessed as increase in life time of DNA and compound complex at 8.5 uM incubated for 5 mins by fluorescence lifetime study; format: nucleic-acid assay
CHO-K1 [13] = experiment: Induction of apoptosis in CHO-K1 cells assessed as late apoptic cells at 60 uM after 48 hrs by Annexin V based flow cytometric analysis (reference value: 1.01%); format: cell-based, Cricetulus griseus; conditions: chinese hamster, cho-k1, 48 h
CHO-K1 [14] = experiment: Induction of apoptosis in CHO-K1 cells assessed as early apoptic cells at 60 uM after 48 hrs by Annexin V based flow cytometric analysis (reference value: 4.58%); format: cell-based, Cricetulus griseus; conditions: chinese hamster, cho-k1, 48 h

Activity (dsDNA [1]): 5.6 nm | Kd (dsDNA [3]): 175 µM | Activity (Quadruplex DNA [8]): 5 nm | Activity (Quadruplex DNA [9]): Active | ΔTm (Quadruplex DNA [11]): 14 °C | Activity (dsDNA [12]): Active
Structure (SMILES): O=C(Cn1cc(CSc2nc3cc(OC(F)F)ccc3[nH]2)nn1)NC1CCCCC1
Activity (PC-3 [2]): 8.9% | Activity (PC-3 [4]): 7.9% | Activity (CHO-K1 [5]): 1.72% | Activity (PC-3 [6]): 2.2% | IC50 (CHO-K1 [7]): 62.9 µM | Activity (CHO-K1 [10]): 15.63% | Activity (CHO-K1 [13]): 1.62% | Activity (CHO-K1 [14]): 10.39%
